Experimental data: publication PMC6792352, “Limited Chemical Structural Diversity Found to Modulate Thyroid Hormone Receptor in the Tox21 Chemical Library” (Environmental Health Perspectives, 2019)
Counter-ions that a name gives are not always drawn.

Test: in vitro
Conditions: rat, gh3-tre-luc cells, AC50 (uM) modified / 1000
For CCCCCCOC(C)=O [Hexyl acetate], the CC50 at 24 h was over 90 µM.
Work on CC(CN1CC(=O)NC(=O)C1)N1CC(=O)NC(=O)C1 (stereo not shown) [ICRF-159] yielded a CC50 at 24 h of over 90 µM.
Molecule NCCN1CCOCC1 [2-Morpholinoethylamine] has a CC50 at 24 h of over 90 µM.
In the case of N[C@@H](CCC(=O)O)C(=O)O [L-Glutamic acid hydrochloride], the CC50 at 24 h was over 90 µM.
Molecule COC(C)CCO (stereo not shown) [3-Methoxybutan-1-ol] has a CC50 at 24 h of over 90 µM.
For CC(COc1ccccc1)NN (stereo not shown) [Phenoxypropazine], the CC50 at 24 h was over 50 µM.
O=C(CBr)OCc1ccccc1 [Benzyl bromoacetate] showed a CC50 at 24 h of over 90 µM.
Work on CC(CCCCN)C(C)(C)N (stereo not shown) [Trimethylhexane-1,6-diamine] yielded a CC50 at 24 h of over 200 µM.
Work on CCOC(=O)/C=C/c1ccccc1 [Ethyl cinnamate] yielded a CC50 at 24 h of over 90 µM.
For Cn1ccc2cc3c(cc21)CCN3C(=O)Nc1cccnc1 [SB 206553 hydrochloride], the CC50 at 24 h was over 50 µM.
Molecule O=[N+]([O-])c1ccc(F)cc1F [2,4-Difluoronitrobenzene] has a CC50 at 24 h of over 90 µM.
Oc1nc2ccc(Cl)cc2o1 [6-Chloro-2,3-dihydrobenzoxazol-2-one] showed a CC50 at 24 h of over 90 µM.
CC(C)(C)c1ccc(CSc2cnn(C(C)(C)C)c(=O)c2Cl)cc1 [Pyridaben] gave a CC50 at 24 h of 47.4 µM.
CCSCC [Diethyl sulfide] gave a CC50 at 24 h of over 100 µM.
With COc1ccc2c(=O)c(C)c(-c3ccccc3)oc2c1CN(C)C [Dimefline hydrochloride] the CC50 at 24 h was over 50 µM.
With Cc1nc(-c2ccccn2)ncc1C(=O)Nn1cc(C)c2cc(F)ccc21 [SAR102608] the CC50 at 24 h was over 90 µM.
Work on CC(=O)Oc1cc(C)c(OC(C)=O)c2ccccc12 [Acetomenaphthone] yielded a CC50 at 24 h of 19.7 µM.
CC1(C)CC(O)CC(C)(C)N1 [2,2,6,6-Tetramethyl-4-piperidinol] gave a CC50 at 24 h of over 90 µM.
Molecule CCCCCCCOC(=O)CCC [Heptyl butanoate] has a CC50 at 24 h of over 90 µM.
O=C(O)c1cc2ccccc2c(Cc2c(O)c(C(=O)O)cc3ccccc23)c1O [Pamoic acid] gave a CC50 at 24 h of over 50 µM.
CCCCCCCCCCn1cc[n+](CCCCCCCCCC)c1C [1,3-Didecyl-2-methylimidazolium chloride] showed a CC50 at 24 h of 6.21 µM.
CCCCCCCCCCCCCCCCSCC(COC)COP(=O)([O-])OCC[N+](C)(C)C (stereo not shown) [Ilmofosine] gave a CC50 at 24 h of 19.3 µM.
With CN1c2c(nc(N)[nH]c2=O)NCC1CNc1ccc(C(=O)N[C@@H](CCC(=O)O)C(=O)O)cc1 (stereo partly shown) [Disodium 5-methyltetrahydrofolate] the CC50 at 24 h was over 50 µM.
Cc1cccc2c1cc1ccc3cccc4ccc2c1c34 [7-Methylbenzo(a)pyrene] gave a CC50 at 24 h of over 90 µM.
Work on CC1(C)CC(OC(=O)CCCCCCCCC(=O)OC2CC(C)(C)NC(C)(C)C2)CC(C)(C)N1 [Bis(2,2,6,6-tetramethyl-4-piperidyl) sebacate] yielded a CC50 at 24 h of 1.55 µM.
In the case of N#Cc1cc(I)c(O)c(I)c1 [Ioxynil], the CC50 at 24 h was 49.1 µM.
Work on CO/C=C(/C(=O)OC)c1ccccc1COc1cccc(C(F)(F)F)n1 [Picoxystrobin] yielded a CC50 at 24 h of over 90 µM.
C=CCc1cc(OC)c(O)c(C(=O)NCCO)c1 [Alibendol] gave a CC50 at 24 h of over 50 µM.
With CCCCN(CC)C(=O)SCCC [Pebulate] the CC50 at 24 h was over 90 µM.
Work on Nc1cc(Cl)cc(Cl)c1 [3,5-Dichloroaniline] yielded a CC50 at 24 h of over 90 µM.
In the case of O=C1OC(=O)c2c(Cl)c(Cl)c(Cl)c(Cl)c21 [Tetrachlorophthalic anhydride], the CC50 at 24 h was over 90 µM.
Work on c1ccc(SCCSc2ccccc2)cc1 [1,2-Bis(phenylthio)ethane] yielded a CC50 at 24 h of over 90 µM.
With CC(C)c1c(CN(C)C(C)Cc2ccccc2)n(C)n(-c2ccccc2)c1=O (stereo not shown) [Famprofazone] the CC50 at 24 h was over 20 µM.
In the case of C#CC(C)(C)NC(=O)c1cc(Cl)cc(Cl)c1 [Propyzamide], the CC50 at 24 h was over 90 µM.
FC(F)(F)C(F)(F)C(F)(F)C(F)(F)CCI [1,1,1,2,2,3,3,4,4-Nonafluoro-6-iodohexane] gave a CC50 at 24 h of over 40 µM.
Work on Nc1ccc(-c2ccc(N)c(N)c2)cc1N [3,3',4,4'-Tetraaminobiphenyl tetrahydrochloride] yielded a CC50 at 24 h of 64.7 µM.
CN1CCCC(CN2c3ccccc3Sc3ccccc32)C1 (stereo not shown) [Pecazine] showed a CC50 at 24 h of 16.4 µM.
Work on Nc1ccc(C(=O)Nc2ccccc2N)cc1 [Dianiline] yielded a CC50 at 24 h of 14.1 µM.
In the case of CCNc1nc(N)nc(Cl)n1 [Deisopropylatrazine], the CC50 at 24 h was over 90 µM.
In the case of C=C(C)CS(=O)(=O)O [Sodium 2-methylprop-2-ene-1-sulfonate], the CC50 at 24 h was over 90 µM.
Molecule O=P(O)(OCc1ccccc1)OCc1ccccc1 [Dibenzyl phosphate] has a CC50 at 24 h of over 90 µM.
Work on C=C1C[C@@H]2[C@H](CC[C@]3(C)C(=O)CC[C@@H]23)[C@@]2(C)C=CC(=O)C=C12 [Exemestane] yielded a CC50 at 24 h of over 50 µM.
With CCCC=O [Butyraldehyde] the CC50 at 24 h was over 90 µM.
Work on COc1nc(C)nc(Cl)c1N=C1NCCN1 [Moxonidine] yielded a CC50 at 24 h of over 20 µM.
For CCCCC1CCC(O)CC1 (stereo not shown) [4-Butylcyclohexanol], the CC50 at 24 h was over 90 µM.
With Cc1nccn1-c1ccc(Sc2cccc(C3(C(N)=O)CCOCC3)c2)cc1 [CJ-013610] the CC50 at 24 h was 42.6 µM.
Molecule CCC(=O)O[C@H]1CC[C@H]2[C@@H]3CCc4cc(O)ccc4[C@H]3CC[C@]12C [beta-Estradiol 17-propionate] has a CC50 at 24 h of 26.8 µM.
COc1c2occc2c(OC)c2c(=O)cc(C)oc12 [Khellin] showed a CC50 at 24 h of over 20 µM.
Work on CC(C)(C)S [2-Methyl-2-propanethiol] yielded a CC50 at 24 h of over 90 µM.
CN1CCN(C(=O)C2CCCCC2)CC1 [Pexantel] gave a CC50 at 24 h of over 50 µM.
BrCCCCCBr [Pentane,1,5-dibromo-] gave a CC50 at 24 h of over 100 µM.
Work on COc1ccccc1[N+](=O)[O-] [1-Methoxy-2-nitrobenzene] yielded a CC50 at 24 h of over 90 µM.
CC[C@@H](C(=O)O)[C@@H]1O[C@@H]([C@@H](C)[C@H](O)[C@H](C)C(=O)[C@H](CC)[C@H]2O[C@]3(C=C[C@@H](O)[C@]4(CC[C@@](C)([C@H]5CC[C@](O)(CC)[C@H](C)O5)O4)O3)[C@H](C)C[C@@H]2C)[C@@H](C)C[C@@H]1C [Narasin] gave a CC50 at 24 h of 0.153 µM.
In the case of CCOC(=O)NNc1nncc2ccccc12 [Todralazine hydrochloride], the CC50 at 24 h was over 50 µM.
For OCc1cccnc1 [Nicotinyl alcohol], the CC50 at 24 h was over 50 µM.
CN[C@@H]1CCc2[nH]c3ccc(C(N)=O)cc3c2C1 [Frovatriptan Succinate monohydrate] showed a CC50 at 24 h of over 50 µM.
With CC(C)CCOC(=O)c1ccccc1 [Isopentyl benzoate] the CC50 at 24 h was over 90 µM.
For CN1C(C)(C)CCCC1(C)C [Pempidine d-tartaric acid], the CC50 at 24 h was over 50 µM.
With CCCNCCC [Dipropylamine] the CC50 at 24 h was over 90 µM.
Cl[C@@H]1OCCO[C@H]1Cl [2,3-Dichloro-p-dioxane] gave a CC50 at 24 h of over 90 µM.
C#CCN1C(=O)COc2cc(F)c(N3C(=O)C4=C(CCCC4)C3=O)cc21 [Flumioxazin] showed a CC50 at 24 h of over 90 µM.
With CCC1(CCC(C)C)C(=O)NC(=O)NC1=O [Amobarbital] the CC50 at 24 h was over 90 µM.

Same assay, conditions: rat, gh3-tre-luc cells, AC50 (uM) modified / 1000, Tox21_110001=Tox21_111921; viability, 1 nM T3 present, 24 h
CCCC(C)(COC(N)=O)COC(=O)NC1CC1 (stereo not shown) [Lorbamate] gave a CC50 at 24 h of over 50 µM.

Same assay, conditions: rat, gh3-tre-luc cells, AC50 (uM) modified / 1000, Tox21_110001=Tox21_200153; viability, 1 nM T3 present, 24 h
With ClC(Br)Br [Chlorodibromomethane] the CC50 at 24 h was over 90 µM.

Same assay, conditions: rat, gh3-tre-luc cells, AC50 (uM) modified / 1000, Tox21_110001=Tox21_200156; viability, 1 nM T3 present, 24 h
In the case of Brc1ccc(Oc2cc(Br)c(Br)cc2Br)c(Br)c1 [2,2',4,4',5-Pentabromodiphenyl ether], the CC50 at 24 h was over 90 µM.

Same assay, conditions: rat, gh3-tre-luc cells, AC50 (uM) modified / 1000, Tox21_110001=Tox21_200913; viability, 1 nM T3 present, 24 h
O=C(O)C(Br)(Br)Br [Tribromoacetic acid] showed a CC50 at 24 h of over 90 µM.

Same assay, conditions: rat, gh3-tre-luc cells, AC50 (uM) modified / 1000, Tox21_110001=Tox21_202244; viability, 1 nM T3 present, 24 h
Molecule Clc1ccccc1-c1ccccc1Cl [2,2'-Dichlorobiphenyl] has a CC50 at 24 h of over 100 µM.

Same assay, conditions: rat, gh3-tre-luc cells, AC50 (uM) modified / 1000, Tox21_110001=Tox21_202323; viability, 1 nM T3 present, 24 h
c1ccc(NNc2ccccc2)cc1 [1,2-Diphenylhydrazine] gave a CC50 at 24 h of over 90 µM.

Same assay, conditions: rat, gh3-tre-luc cells, AC50 (uM) modified / 1000, Tox21_110001=Tox21_300492; viability, 1 nM T3 present, 24 h
In the case of c1ccc(NNc2ccccc2)cc1 [1,2-Diphenylhydrazine], the CC50 at 24 h was 67.9 µM.

Same assay, conditions: rat, gh3-tre-luc cells, AC50 (uM) modified / 1000, Tox21_110001=Tox21_302252; viability, 1 nM T3 present, 24 h
Molecule O=C(NCc1cccnc1)Nc1ccc([N+](=O)[O-])cc1 [Pyrinuron] has a CC50 at 24 h of 81.3 µM.
